Results: patent US20100120700A1, “METHODS AND COMPOSITIONS FOR TREATING CERVICAL CANCER” (priority 2000, published 2010)
Values joined by “and” are separate entries in the source; they are usually repeats but may differ in a detail not shown here. Equal values may be shown once.

Assays:
Assay in all cases: G assay PDZ-PL binding
CASK domain 1 = target: T1, CASK domain 1 (Homo sapiens, UniProt O14936); conditions: peptide 10 uM, protein 5
T1 construct: made in house; host or cells: E. coli (DH5alpha or BL-21)
T1 sequence (O14936 486-575): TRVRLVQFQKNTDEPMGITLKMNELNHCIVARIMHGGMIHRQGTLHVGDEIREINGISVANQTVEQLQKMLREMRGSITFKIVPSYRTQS
Protocol: (§1) (1) A PDZ-domain polypeptide is bound to a surface, e.g. a protein binding surface. In a preferred embodiment, a GST/PDZ fusion protein containing one or more PDZ domains is bound to a polystyrene 96-well plate. […] In one embodiment, the GST/PDZ fusion protein is bound via an anti-GST antibody that is coated onto the 96-well plate. Adequate binding to the plate can be achieved when: • a. 100 uL per well of 5 ug/mL goat anti-GST polyclonal antibody (Pierce) in PBS is added to a polystyrene 96-well plate (e.g., Num Polysorb) at 4° C. for 12 hours. • b. The plate is blocked by addition of 200 uL per well of PBS/BSA for 2 hours at 4° C. • c. The plate is washed 3 times with PBS. • d. 50 uL per well of 5 ug/mL GST/PDZ fusion protein) or, as a negative control, GST polypeptide alone (i.e. not a fusion protein) in PBS/BSA is added to the plate for 2 hours at 4° C. • e. The plate is again washed 3 times with PBS. […]
(§2) (3) The binding of the biotinylated peptide to the GST/PDZ fusion protein surface can be detected using a variety of methods and detectors known to one of skill in the art. In one embodiment, 100 uL per well of 0.5 ug/mL streptavidin-horse radish peroxidase (HRP) conjugate dissolved in BSA/PBS is added and allowed to react for 20 minutes at 4° C. The plate is then washed 5 times with 50 mM Tris pH 8.0 containing 0.2% Tween 20, and developed by addition of 100 uL per well of HRP-substrate solution (TMB, Dako) for 20 minutes at room temperature (RT). The reaction of the HRP and its substrate is terminated by addition of 100 uL per well of 1M sulfuric acid, and the absorbance of each well of the plate is read at 450 nm.
(§3) (4) Specific binding of a PL peptide and a PDZ domain polypeptide is determined by comparing the signal from the well(s) in which the PL peptide and PDZ domain polypeptide are combined, with the background signal(s). The background signal is the signal found in the negative control(s). Typically a specific or selective reaction will be at least twice background signal, more typically more than 5 times background, and most typically 10 or more times the background signal. In addition, a statistically significant reaction will involve multiple measurements of the reaction with the signal and the background differing by at least two standard errors, more typically four standard errors, and most typically six or more standard errors. Correspondingly, a statistical test (e.g. a T-test) comparing repeated measurements of the signal with-repeated measurements of the background will result in a p-value<0.05, more typically a p-value<0.01, and most typically a p-value<0.001 or less. As noted, in an embodiment of the “G” assay, the signal from binding of a given PL peptide to immobilized (surface bound) GST polypeptide alone is one suitable negative control (sometimes referred to as “B 1”). Because all measurement are done in multiples (i.e. at least duplicate) the arithmetic mean (or, equivalently, average.) of several measurements is used in determining the binding, and the standard error of the mean is used in determining the probable error in the measurement of the binding. The standard error of the mean of N measurements equals the square root of the following: the sum of the squares of the difference between each measurement and the mean, divided by the product of (N) and (N−1). Thus, in one embodiment, specific binding of the PDZ protein to the platebound peptide is determined by comparing the mean signal (“mean S”) and standard error of the signal (“SE”) for a particular PL-PDZ combination with the mean B1.
(§4) For convenience, the assay conditions described in this section are referred to as the “G’ assay” and the “G” assay,” with the specific conditions described in the preceding section on G assays being referred to as the “G° assay.” The “G′ assay” is identical to the “G° assay” except at step (2) the peptide concentration is 10 uM instead of 20 uM. […]

DLG2 #162.1 domain 2 = target: T2, DLG2 #162.1 domain 2 (Homo sapiens, UniProt Q15700, K278N); conditions: peptide 10 uM, protein 5
T2 construct: made in house; host or cells: E. coli (DH5alpha, BL21 or JM109), vector pGEX-3X
T2 sequence (Q15700 whole entry, looked up, the tested form differs by isoform, tags, fused parts or gaps, stated change not applied): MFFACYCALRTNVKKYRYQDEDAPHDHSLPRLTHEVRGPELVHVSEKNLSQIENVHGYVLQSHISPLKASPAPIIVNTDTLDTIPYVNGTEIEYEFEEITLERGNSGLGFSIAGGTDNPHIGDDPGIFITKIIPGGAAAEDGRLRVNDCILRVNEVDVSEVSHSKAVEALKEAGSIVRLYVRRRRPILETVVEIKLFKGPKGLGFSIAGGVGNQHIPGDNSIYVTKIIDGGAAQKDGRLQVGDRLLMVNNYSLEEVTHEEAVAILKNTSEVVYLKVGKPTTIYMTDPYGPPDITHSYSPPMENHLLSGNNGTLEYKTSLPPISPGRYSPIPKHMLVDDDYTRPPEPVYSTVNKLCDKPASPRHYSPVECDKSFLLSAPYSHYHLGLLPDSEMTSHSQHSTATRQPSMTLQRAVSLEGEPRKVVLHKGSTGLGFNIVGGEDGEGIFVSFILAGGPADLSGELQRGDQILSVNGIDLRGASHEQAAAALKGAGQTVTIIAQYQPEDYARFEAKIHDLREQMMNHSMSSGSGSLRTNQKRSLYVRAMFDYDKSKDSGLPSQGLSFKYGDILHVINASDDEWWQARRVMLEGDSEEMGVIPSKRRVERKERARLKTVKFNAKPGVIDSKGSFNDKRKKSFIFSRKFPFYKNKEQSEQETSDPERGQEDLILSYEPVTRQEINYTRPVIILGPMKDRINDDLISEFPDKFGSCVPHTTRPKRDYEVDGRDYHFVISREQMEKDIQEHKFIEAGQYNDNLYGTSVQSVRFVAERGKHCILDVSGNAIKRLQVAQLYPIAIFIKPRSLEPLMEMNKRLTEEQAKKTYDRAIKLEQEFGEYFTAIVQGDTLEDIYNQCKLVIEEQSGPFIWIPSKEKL
Protocol: as §1, §2, §3, §4

GTPase domain 1 = target: T3, GTPase domain 1 (Homo sapiens, UniProt Q96FS4); conditions: peptide 10 uM, protein 5
T3 construct: made in house; host or cells: E. coli (DH5alpha, BL21 or JM109)
T3 sequence (Q96FS4 680-767): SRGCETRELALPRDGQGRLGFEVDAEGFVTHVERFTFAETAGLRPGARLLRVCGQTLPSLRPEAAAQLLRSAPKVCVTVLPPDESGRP
Protocol: as §1, §2, §3, §4

INADL domain 6 = target: T4, INADL domain 6 (Homo sapiens, UniProt Q8NI35, G1085V); conditions: peptide 10 uM, protein 5
T4 construct: made in house; host or cells: E. coli (DH5alpha, BL21 or JM109)
T4 sequence (Q8NI35 with tags, fused parts or gaps G1085V): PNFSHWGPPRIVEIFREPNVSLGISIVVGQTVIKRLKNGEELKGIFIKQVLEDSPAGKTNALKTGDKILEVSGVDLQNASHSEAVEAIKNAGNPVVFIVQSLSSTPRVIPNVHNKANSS
Protocol: as §1, §2, §3, §4

KIAA0545 domain 1 = target: T5, KIAA0545 domain 1 (Homo sapiens, UniProt O60292); conditions: peptide 10 uM, protein 5
T5 construct: made in house; host or cells: E. coli (DH5alpha or BL-21)
T5 sequence (O60292 955-1050): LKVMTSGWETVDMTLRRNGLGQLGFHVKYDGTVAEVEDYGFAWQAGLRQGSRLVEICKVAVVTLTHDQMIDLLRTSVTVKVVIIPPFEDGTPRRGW
Protocol: as §1, §2, §3, §4

MAGI 1 domain 2 = target: T6, MAGI 1 domain 2 (Homo sapiens, UniProt Q96QZ7)
T6 construct: made in house; host or cells: E. coli (DH5alpha, BL21 or JM109)
T6 sequence (Q96QZ7 463-566): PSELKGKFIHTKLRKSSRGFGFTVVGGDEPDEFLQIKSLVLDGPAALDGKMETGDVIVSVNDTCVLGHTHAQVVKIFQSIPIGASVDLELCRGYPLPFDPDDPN
Protocol: as §1, §2, §3, §4

MAGI 1 domain 3 = target: T7, MAGI 1 domain 3 (Homo sapiens, UniProt Q96QZ7); conditions: peptide 10 uM, protein 5
T7 construct: made in house; host or cells: E. coli (DH5alpha, BL21 or JM109)
T7 sequence (Q96QZ7 with tags, fused parts or gaps): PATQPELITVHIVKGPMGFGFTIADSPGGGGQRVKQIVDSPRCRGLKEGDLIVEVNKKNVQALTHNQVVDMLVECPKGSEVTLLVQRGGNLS
Protocol: as §1, §2, §3, §4

MUPP1 domain 13 = target: T8, MUPP1 domain 13 (Homo sapiens, UniProt O75970); conditions: peptide 10 uM, protein 5
T8 construct: made in house; host or cells: E. coli (DH5alpha or BL-21)
T8 sequence (O75970 1980-2070): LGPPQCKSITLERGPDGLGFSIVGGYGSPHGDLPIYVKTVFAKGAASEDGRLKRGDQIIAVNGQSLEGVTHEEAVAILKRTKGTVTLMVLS
Protocol: as §1, §2, §3, §4

PDZK1 domain 2, 3, 4 = target: T9, PDZK1 domain 2, 3, 4 (Homo sapiens, UniProt Q5T2W1); conditions: peptide 10 uM, protein 5
T9 construct: When more than one PDZ domain was cloned, the DNA portion cloned represents the PDZ domains and the cDNA portion located between individual domains; made in house; host or cells: E. coli (DH5alpha, BL21 or JM109)
Protocol: as §1, §2, §3, §4

PIST domain 1 = target: T10, PIST domain 1 (Homo sapiens, UniProt Q9HD26); conditions: peptide 10 uM, protein 5
T10 construct: made in house; host or cells: E. coli (DH5alpha or BL-21)
Protocol: as §1, §2, §3, §4

Shroom domain 1 = target: T11, Shroom domain 1 (Homo sapiens, UniProt Q8TF72); conditions: peptide 10 uM, protein 5
T11 construct: made in house; host or cells: E. coli (DH5alpha or BL-21)
T11 sequence (Q8TF72 26-116): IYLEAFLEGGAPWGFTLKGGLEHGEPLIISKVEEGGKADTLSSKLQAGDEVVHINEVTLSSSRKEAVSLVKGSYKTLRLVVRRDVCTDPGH
Protocol: as §1, §2, §3, §4

X-11 beta domain 2 = target: T12, X-11 beta domain 2 (Homo sapiens, UniProt Q99767); conditions: peptide 10 uM, protein 5
T12 construct: made in house; host or cells: E. coli (DH5alpha or BL-21)
T12 sequence (Q99767 with tags, fused parts or gaps): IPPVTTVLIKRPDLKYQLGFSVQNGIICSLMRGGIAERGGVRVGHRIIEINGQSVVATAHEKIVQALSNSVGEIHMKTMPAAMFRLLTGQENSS
Protocol: as §1, §2, §3, §4

ZO-1 domain 2 = target: T13, ZO-1 domain 2 (Homo sapiens, UniProt Q07157, DEL264-264); conditions: peptide 10 uM, protein 5
T13 construct: made in house; host or cells: E. coli (DH5alpha, BL21 or JM109)
T13 sequence (Q07157 with tags, fused parts or gaps DEL264-264): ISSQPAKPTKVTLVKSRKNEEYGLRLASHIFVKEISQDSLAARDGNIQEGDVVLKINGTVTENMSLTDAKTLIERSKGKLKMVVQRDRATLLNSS
Protocol: as §1, §2, §3, §4

Substance: 20 mer peptide corresponding to the C-terminus of HPV16 E6 (PDZ ligand), biotinylated in binding assays; ends SSRTRRETQL (SEQ ID NO: 13) [HPV E6 #16]
- Ave OD (CASK domain 1; A450 nm): 0.36
- OD S/N (CASK domain 1; vs GST only well): 1.15
- Ave OD (DLG2 #162.1 domain 2; A450 nm): 0.908 and 0.853
- OD S/N (DLG2 #162.1 domain 2; vs GST only well): 3.87 and 3.05
- Ave OD (GTPase domain 1; A450 nm): 0.3505
- OD S/N (GTPase domain 1; vs GST only well): 1.12
- Ave OD (INADL domain 6; A450 nm): 0.518
- OD S/N (INADL domain 6; vs GST only well): 3.07
- Ave OD (KIAA0545 domain 1; A450 nm): 0.4395
- OD S/N (KIAA0545 domain 1; vs GST only well): 3.96
- Ave OD (MAGI 1 domain 2; A450 nm, MAGI 1 domain 2, peptide 10 uM, protein 5): 4.1125
- binding to MAGI-1 second PDZ domain (qualitative) (MAGI 1 domain 2; G assay / Matrix TM assay, called MAGI 1 domain 1 in b521 (nomenclature b497)): bound with the highest relative affinity
- OD S/N (MAGI 1 domain 2; vs GST only well, MAGI 1 domain 2, peptide 10 uM, protein 5): 19.54
- Ave OD (MAGI 1 domain 3; A450 nm): 0.354
- OD S/N (MAGI 1 domain 3; vs GST only well): 1.46
- Ave OD (MUPP1 domain 13; A450 nm): 0.4355 and 0.4115
- OD S/N (MUPP1 domain 13; vs GST only well): 1.56 and 1.75
- Ave OD (PDZK1 domain 2, 3, 4; A450 nm): 0.518
- OD S/N (PDZK1 domain 2, 3, 4; vs GST only well): 2.64
- Ave OD (PIST domain 1; A450 nm): 0.3855
- OD S/N (PIST domain 1; vs GST only well): 1.96
- Ave OD (Shroom domain 1; A450 nm): 0.361
- OD S/N (Shroom domain 1; vs GST only well): 3.25
- Ave OD (X-11 beta domain 2; A450 nm): 0.4315 and 0.4265
- OD S/N (X-11 beta domain 2; vs GST only well): 2.95 and 1.78
- Ave OD (ZO-1 domain 2; A450 nm): 0.518
- OD S/N (ZO-1 domain 2; vs GST only well): 3.02
